From US11000511B2, “Chemical compounds as antibiotics” (priority 2017, dated 2021)

Tests used:
[1] = biological target: T1, purified LasB protein from P. aeruginosa (Pseudomonas aeruginosa, UniProt P14756); test: Fluorometric assay to determine Ki (Assay 1); assay type: biochemical; conditions: Ki (μM) Assay 1, purified LasB, substrate Abz-Ala-Gly-Leu-Ala-p-Nitro-Benzyl-Amide 250 μM, Ki calculated from IC50; inhibitor 0.006 to 200 μM
T1 construct: purchased Merck or Charles River Laboratories
Protocol: (§1) Experiments were therefore conducted (1) to measure the potency of inhibition of compounds of the invention against purified Pseudomonas aeruginosa LasB enzyme and also experiments were conducted (2) to measure the ability of compounds of the invention to inhibit LasB-catalysed elastin degradation. The first assay uses a commercial fluorescent synthetic peptide and purified LasB enzyme. The LasB hydrolysis kinetics are measured allowing the determination of the IC50 and Ki of the inhibitors; the second is a more physiological assay using dialysed Pseudomonas aeruginosa supernatant as source of enzyme, plus its natural substrate Elastin. It is an “end point assay” that determines the percentage of LasB inhibition by each compound for one particular time point and inhibitor concentration. Technical details are described below:
This assay uses commercially available substrate (Abz-Ala-Gly-Leu-Ala-p-Nitro-Benzyl-Amide (Ex: 340 nm, Em: 415 nm) from Peptide International) and purified LasB protein from P. aeruginosa (provided by Merck or Charles River Laboratories). It is performed to determine LasB elastase activity and assess compound inhibition in 96-well plate format. Some compounds of Formula (I) were assessed using the method of Assay 1 (described below). Other compounds of Formula (I) were assessed using the alternative but equivalent method of Assay 2 (described below).
Method: 10 to 140 ng/ml purified LasB is incubated with 250 μM Abz-Ala-Gly-Leu-Ala-p-Nitro-Benzyl-Amide in 50 mM Tris-HCl pH 7.4, 2.5 mM CaCl2), 0.01% of Triton X100 at 37° C. LasB activity (corresponding to fluorescence emission induced by substrate hydrolysis) is measured over 30 min at 37° C. with a fluorescence plate reader such as the Perkin Elmer Envision or similar. Different range of inhibitor concentrations are routinely assessed depending of inhibitor potency from 0.006 to 200 μM (Assay 1; 2-fold dilutions series) or from 0.0016 to 200 μM (Assay 2; 2-fold dilutions series) in order to determine IC50.
The equation used to calculate the Ki from IC50 is: Ki=IC50/(1+([S]/Km)) where [S]=250 μM and Km=214 μM.

[2] = biological target: T2, LasB elastase activity in dialysed supernatant from P. aeruginosa strain PA01 (Pseudomonas aeruginosa, UniProt P14756); test: Elastin Congo Red assay to determine % inhibition (Assay 1); assay type: biochemical; conditions: for inhibition at 50 µM: read-out: Elastin hydrolysis % inhibition @ 50/25 μM inhibitor concentration Assay 1
T2 construct: uses as source of enzyme dialysed supernatant from P. aeruginosa; endogenous in cells; host or cells: P. aeruginosa strain PA01 culture supernatant, filtered and dialysed
Protocol: as §1
The Elastin assay uses as source of enzyme dialysed supernatant from P. aeruginosa and the elastin congo red as substrate. The natural LasB substrate, elastin, is complexed with the congo red dye (Elastin Congo Red, ECR). The elastolysis activity from the culture supernatant will degrade elastin and release the congo red dye into the supernatant. This red dye release can be measured with a spectrophotometer. Some compounds of Formula (I) were assessed using the method of Assay 1 (described below). Other compounds of Formula (I) were assessed using the alternative but equivalent method of Assay 2 (described below).
Method (Assay 1): To determine LasB elastase activity and assess compound inhibition, an overnight culture of P. aeruginosa strain PA01 is diluted thousand-fold in LB medium. This diluted solution is incubated during 19 hours in a shaking incubator. Culture supernatants are recovered by centrifugation and filtrated through a […] filter. These supernatants are dialysed (filtration molecules <20 kDa) into a 50 mM Tris pH 7.4, 2.5 mM CaCl2 solution at 4° C. under agitation for 24 hours. Supernatant dialysed is then mixed volume/volume with the ECR suspension (20 mg/mL of ECR in 100 mM Tris buffer supplemented with 1 mM CaCl2) supplemented with TritonX 100 (final concentration of 0.01%) in presence of different concentrations of compound (routinely 50 and 25 μM). The mixed reaction is then incubated for 24 hours in a 37° shaking incubator. As a negative control, the mixed supernatant is replaced by Tris solution (50 mM Tris pH 7.4, 2.5 mM CaCl2). The reaction supernatant is recovered by centrifugation and the release of congo red is measured by its absorbance at OD520. Percentage inhibition is determined using the following equation: (OD520 value of DMSO SN−OD520 value of LB)−(OD520 value of Compound SN−OD520 value of LB)/(OD520 value of DMSO SN−OD520 value of LB)×100.

T1 sequence (P14756 198-498): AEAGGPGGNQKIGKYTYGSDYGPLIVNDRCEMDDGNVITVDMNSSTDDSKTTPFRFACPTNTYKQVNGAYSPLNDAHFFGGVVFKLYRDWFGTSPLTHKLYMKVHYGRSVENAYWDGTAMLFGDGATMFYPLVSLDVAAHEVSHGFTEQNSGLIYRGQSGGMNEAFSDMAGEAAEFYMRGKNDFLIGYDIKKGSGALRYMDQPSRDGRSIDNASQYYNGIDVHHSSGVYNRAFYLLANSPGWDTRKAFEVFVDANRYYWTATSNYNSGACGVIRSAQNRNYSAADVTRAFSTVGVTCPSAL
T2 sequence (P14756 198-498): as above

| Structure (SMILES) | Ki [1] [µM] | inhibition at 50 µM [2] [%] | Elastin hydrolysis % inhibition @ 50/25 μM inhibitor concentration Assay 1 ([2]; 50 μM inhibitor concentration, elastin congo red, 24 hours, OD520) |
| --- | --- | --- | --- |
| NC1CC(Oc2ccc3nc(CNC(=O)C4(CC(=O)O)Cc5ccccc5C4)sc3c2)C1 (mixture of isomers) [Example 78, 2-[2-[[6-(3-aminocyclobutoxy)-1,3-benzothiazol-2-yl]methylcarbamoyl]indan-2-yl]acetic acid] | 0.3 to 2 |  |  |
| CC(NC(=O)C1(CC(=O)O)Cc2ccccc2C1)c1cc2ccccc2o1 (single isomer, unassigned) [Example 58, 2-[2-[[(1R*)-1-(benzofuran-2-yl)ethyl]carbamoyl]indan-2-yl]acetic acid] | 2 to 10 | 30 to 60 |  |
| CC(NC(=O)C1(CC(=O)O)Cc2ccccc2C1)c1cc2ccccc2o1 (single isomer, unassigned) [Example 59, 2-[2-[[(1S*)-1-(benzofuran-2-yl)ethyl]carbamoyl]indan-2-yl]acetic acid] | 0.3 to 2 |  | B (30 to 60% inhibition) |
| O=C(O)CC1(C(=O)NCc2nc3cc(Cl)ccc3[nH]2)Cc2ccccc2C1 [Example 1, 2-(2-{[(5-Chloro-1H-1,3-benzodiazol-2-yl)methyl]carbamoyl}-2,3-dihydro-1H-inden-2-yl)acetic acid] | 0.3 to 2 | 30 to 60 |  |
| O=C(O)CC1(C(=O)NCc2cc3ccccc3cn2)Cc2ccccc2C1 [Example 2, 2-[2-(3-isoquinolylmethylcarbamoyl)indan-2-yl]acetic acid] | 0.3 to 2 | 30 to 60 |  |
| Cn1cc(CNC(=O)C2(CC(=O)O)Cc3ccccc3C2)cn1 [Example 3, 2-[2-[(1-methylpyrazol-4-yl)methylcarbamoyl]-indan-2-yl]acetic acid] | 2 to 10 | 30 to 60 |  |
| O=C(O)CC1(C(=O)NCc2cc3ccccc3o2)Cc2ccccc2C1 [Example 5, 2-(2-{[(1-Benzofuran-2-yl)methyl]carbamoyl}-2,3-dihydro-1H-inden-2-yl)acetic acid] | 0.3 to 2 | 30 to 60 |  |
| Cc1ccc2oc(CNC(=O)C3(CC(=O)O)Cc4ccccc4C3)cc2c1 [Example 6, 2-(2-{[(5-methyl-1-benzofuran-2-yl)methyl]carbamoyl}-2,3-dihydro-1H-inden-2-yl)acetic acid] | < 0.3 | > 60 |  |
| Cc1ccc2c(c1)CC(CNC(=O)C1(CC(=O)O)Cc3ccccc3C1)O2 (stereo not drawn) [Example 7, 2-[2-[(5-methyl-2,3-dihydrobenzofuran-2-yl)methylcarbamoyl]indan-2-yl]acetic acid] | < 0.3 | > 60 |  |
| O=C(O)CC1(C(=O)NC2CCN(c3cccc(Cl)c3)C2)Cc2ccccc2C1 (stereo not drawn) [Example 8, 2-[2-[[1-(3-chlorophenyl)pyrrolidin-3-yl]carbamoyl]indan-2-yl]acctic acid] | < 0.3 | > 60 |  |
| Cn1c(CNC(=O)C2(CC(=O)O)Cc3ccccc3C2)cc2ccccc21 [Example 9, 2-[2-[(1-methylindol-2-yl)methylcarbamoyl]indan-2-yl]acetic acid] | < 0.3 | > 60 |  |
| O=C(O)CC1(C(=O)NCc2nc3ccccc3s2)Cc2ccccc2C1 [Example 10, 2-(2-{[(1,3-Benzothiazol-2-yl)methyl]carbamoyl}-2,3-dihydro-1H-inden-2-yl)acetic acid] | < 0.3 | > 60 |  |
| Cc1c(CNC(=O)C2(CC(=O)O)Cc3ccccc3C2)oc2ccccc12 [Example 11, 2-(2-{[2-(3-methyl-1-benzofuran-2-yl)methyl]carbamoyl}-2,3-dihydro-1H-inden-2-yl)acetic acid] | 0.3 to 2 | 30 to 60 |  |
| O=C(O)CC1(C(=O)NCCc2nc3ccccc3[nH]2)Cc2ccccc2C1 [Example 12, 2-[2-[2-(1H-benzimidazol-2-yl)ethylcarbamoyl]indan-2-yl]acetic acid] | 2 to 10 | 15 to 30 |  |
| O=C(O)CC1(C(=O)NCCc2nc3ccccc3o2)Cc2ccccc2C1 [Example 31, 2-[2-[2-(1,3-benzoxazol-2-yl)ethylcarbamoyl]indan-2-yl]acetic acid] | 2 to 10 |  |  |
| C[N+](C)(C)CCNc1ccc2sc(CNC(=O)C3(CC(=O)[O-])Cc4ccccc4C3)nc2c1 [Example 77, 2-[2-[[5-[2-(trimethylammonio)ethylamino]-1,3-benzothiazol-2-yl]methylcarbamoyl]indan-2-yl]acetate] | 0.3 to 2 |  |  |
| CN(C)C1CC(Oc2ccc3nc(CNC(=O)C4(CC(=O)O)Cc5ccccc5C4)sc3c2)C1 (stereo not drawn) [Example 79, 2-[2-[[6-[3-(dimethylamino)cyclobutoxy]-1,3-benzothiazol-2-yl]methylcarbamoyl]indan-2-yl]acetic acid] | 0.3 to 2 |  |  |
| CN(C)Cc1ccc2nc(CNC(=O)C3(CC(=O)O)Cc4ccccc4C3)sc2c1 [Example 81, 2-[2-[[6-[(dimethylamino)methyl]-1,3-benzothiazol-2-yl]methylcarbamoyl]indan-2-yl]acetic acid] | 2 to 10 |  |  |
| C[N+](C)(C)Cc1ccc2nc(CNC(=O)C3(CC(=O)[O-])Cc4ccccc4C3)sc2c1 [Example 82, 2-[2-[[6-[(trimethylammonio)methyl]-1,3-benzothiazol-2-yl]methylcarbamoyl]indan-2-yl]acetate] | 2 to 10 |  |  |
| NCCc1ccc2sc(CNC(=O)C3(CC(=O)O)Cc4ccccc4C3)nc2c1 [Example 83, 2-[2-[[5-(2-aminoethyl)-1,3-benzothiazol-2-yl]methylcarbamoyl]indan-2-yl]acetic acid] | 0.3 to 2 |  |  |
| CN(C)Cc1ccc2sc(CNC(=O)C3(CC(=O)O)Cc4ccccc4C3)nc2c1 [Example 84, 2-[2-[[5-[(dimethylamino)methyl]-1,3-benzothiazol-2-yl]methylcarbamoyl]indan-2-yl]acetic acid] | 0.3 to 2 |  |  |
| C[N+](C)(C)Cc1ccc2sc(CNC(=O)C3(CC(=O)[O-])Cc4ccccc4C3)nc2c1 [Example 85, 2-[2-[[5-[(trimethylammonio)methyl]-1,3-benzothiazol-2-yl]methylcarbamoyl]indan-2-yl]acetate] | 0.3 to 2 |  |  |
| CN(C)CCc1ccc2sc(CNC(=O)C3(CC(=O)O)Cc4ccccc4C3)nc2c1 [Example 97, 2-[2-[[5-[2-(dimethylamino)ethyl]-1,3-benzothiazol-2-yl]methylcarbamoyl]indan-2-yl]acetic acid] | 0.3 to 2 |  |  |
| C[N+](C)(C)CCc1ccc2sc(CNC(=O)C3(CC(=O)[O-])Cc4ccccc4C3)nc2c1 [Example 98, 2-[2-[[5-[2-(trimethylammonio)ethyl]-1,3-benzothiazol-2-yl]methylcarbamoyl]indan-2-yl]acetate] | 0.3 to 2 |  |  |
| CC(C)(N)c1nnc([C@H](Cc2c[nH]c3ccccc23)NC(=O)C2(CC(=O)O)Cc3ccccc3C2)o1 [Example 119, (S)-2-(2-((1-(5-(2-aminopropan-2-yl)-1,3,4-oxadiazol-2-yl)-2-(1H-indol-3-yl)ethyl)carbamoyl)-2,3-dihydro-1H-inden-2-yl)acetic acid] | 0.3 to 2 |  |  |
| O=C(O)CC1(C(=O)NCc2nc3ccccc3s2)Cc2cc(Cl)c(Cl)cc2C1 [Example 121, 2-(2-((benzo[d]thiazol-2-ylmethyl)carbamoyl)-5,6-dichloro-2,3-dihydro-1H-inden-2-yl)acetic acid] | 0.3 to 2 |  |  |
